US6710048B2, “Pyrazine derivatives as modulators of tyrosine kinases” (Ortho-McNeil Pharmaceutical, Inc., priority 2000, dated 2004)
Like-named read-outs stand apart in the source and are kept apart here.

Biological target: T1, VEGF-R (vascular endothelial growth factor receptor-2) (Rattus norvegicus, UniProt O08775)
T1 construct: polyhistidine (6xHis) (N)
Assay: VEGF-R screening assay (33P FlashPlate kinase assay)
Type: biochemical
Method: A kinase reaction mixture was prepared containing 50 mM Tris-HCl pH=8, 10 mM MgCl2, 0.1 mM NAPO4, 1 mM DTT, 10 μM ATP, 0.025 μM biotinylated peptide substrate and 0.8 μCuries per well ^33P-γ-ATP [2000-3000 Ci/mmol]. 70 μl of the kinase reaction mixture was dispensed into the well of a streptavidin coated FlashPlate™ (Cat. # SMP103, NEN, Boston, Mass.). Then 1 μl of test compound stock in 100% DMSO was added to the wells resulting in a final concentration of 1% DMSO in the reaction with a 100 μl final reaction volume. Next, soluble rat tyrosine kinase containing an N-terminal 6×HIS tag was diluted in 50 mM Tris-HCl pH=8.0, 0.1% BSA at a concentration of 5 ng per microliter and 30 μl (150 ng enzyme per test well) was added to each well to initiate the reaction. The reaction was incubated for one hour at 30° C. At the end of the 1-hour incubation, the reaction was terminated by aspirating the reaction mixture from the plate and washing the wells twice with PBS containing 100 mM EDTA. The PLCI biotinylated peptide substrate becomes immobilized on the Flashplate™ and the incorporation of ^33P-γ-ATP was measured by reading the plate on a scintillation counter. Inhibition of the enzymatic activity of the VEGF-R was measured by observing a reduced amount of ^33P-γ-ATP incorporated into the immobilized peptide.
The term n.d. means not tested.
Assays to test compound inhibition of other kinases were preformed using methods that measure the amount of phosphorylation of a biotinylated peptide substrate. Biotinylated peptide substrates were selected from the literature as appropriate for the enzyme being evaluated. The general procedure used to assay for kinase activity is as follows: A kinase reaction mix was prepared in 50 mM Tris-HCl pH=8, 10 mM MgCl2, 0.1 mM NaVO4, 1 mM DTT, 5-10 μM ATP, 0.25-1 μM biotinylated peptide substrate, 0.2-0.8 μCuries per well ^33P-γ-ATP [2000-3000 Ci/mmol]. Assay conditions vary slightly for each protein kinase, for example, insulin receptor kinase requires 10 mM MnCl2 for activity and Calmodulin-dependent protein kinase requires calmodulin and 2 mM CaCl2. The reaction mixture was dispensed into the wells of a streptavidin coated Flashplate and 1 μl drug stock in 100% DMSO was added to a 100 μl reaction volume resulting in a final concentration of 1% DMSO in the reaction. Enzyme was diluted in 50 mM Tris-HCl pH=8.0, 0.1% BSA and added to each well. The reaction was incubated for one hour at 30° C. in the presence of compound. After one hour the reaction mix was aspirated from the plate and the plate was washed with PBS containing 100 mM EDTA. The plate was read on a scintillation counter to determine ^33P-γ-ATP incorporated into the immobilized peptide. Test compounds were assayed in duplicate at 8 concentrations [100 tM, 10 μM, 1 μM, 100 nM, 10 nM, 1 nM, 100 μM, 10 μM]. A maximum and minimum signal for the assay was determined on each plate. The IC50 was calculated from the dose response curve of the percent inhibition of the maximum signal in the assay according to the formula [max signal−background/test compound signal−background (100)=% inhibition] by graphing the percent inhibition against the log concentration of test compound. Known inhibitor compounds appropriate for the kinase being assayed were also included on each plate.
VEGF-R (vascular endothelial growth factor receptor-2) is a fusion protein containing a polyhistidine tag at the N-terminus followed by amino acids 786-1343 of the rat VEGF-R2 kinase domain (GenBank Accession #U93306). CDK1 (cyclin dependent kinase 1) is isolated from insect cells expressing both the human CDK1 catalytic subunit and its positive regulatory subunit cyclin B (New England Biolabs, Beverly, Mass., Cat. #6020). CDK4 (cyclin dependent kinase 4) contains amino acids 769 to 921 of the mouse […] protein found in the GST-retinoblastoma protein construct (Santa Cruz Biotechnology, Santa Cruz, Calif.; Cat. #SC-4112). […]

[1] = Table 4 kinase selectivity, read-out: IC50, Assay 1 VEGF-R
[2] = Tables 1-3, >10 or >100 = no 50% inhibition at highest dose tested, read-out: VEGF-R IC50

T1 sequence (O08775 786-1343): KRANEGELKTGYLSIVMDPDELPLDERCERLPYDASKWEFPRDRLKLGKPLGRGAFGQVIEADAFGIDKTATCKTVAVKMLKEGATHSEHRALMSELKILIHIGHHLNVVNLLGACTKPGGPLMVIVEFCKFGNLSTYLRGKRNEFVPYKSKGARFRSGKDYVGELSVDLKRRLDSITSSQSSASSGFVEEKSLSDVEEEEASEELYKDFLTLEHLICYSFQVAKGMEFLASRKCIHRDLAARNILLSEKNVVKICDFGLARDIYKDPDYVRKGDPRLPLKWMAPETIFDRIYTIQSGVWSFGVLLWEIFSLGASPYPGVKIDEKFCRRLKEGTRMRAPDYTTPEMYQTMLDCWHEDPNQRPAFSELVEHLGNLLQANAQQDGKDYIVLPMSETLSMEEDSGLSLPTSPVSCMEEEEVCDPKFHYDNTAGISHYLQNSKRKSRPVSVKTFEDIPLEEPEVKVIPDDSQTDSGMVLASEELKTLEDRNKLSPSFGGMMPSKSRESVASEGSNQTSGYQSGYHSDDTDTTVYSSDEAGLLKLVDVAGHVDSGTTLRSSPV

`OCCCNc1cncc(-c2cncc(Nc3cccc(Cl)c3)n2)c1` [Cmd 4] gave an IC50 [1] of 42 nM and an IC50 [2] of 80 nM.

`Clc1cccc(Nc2cncc(-c3cncc(NCCCc4cccnc4)c3)n2)c1` [Cmd 72] showed an IC50 [1] of 89 nM and an IC50 [2] of 89 nM.

With `Clc1cccc(Nc2cncc(-c3cncc(NCCCn4cccn4)c3)n2)c1` [Cmd 75] the IC50 [1] was 79 nM and the IC50 [2] was 79 nM.

With `Clc1cccc(Nc2cncc(-c3cncc(NCCCn4cncn4)c3)n2)c1` [Cmd 76] the IC50 [1] was 52 nM and the IC50 [2] was 52 nM.

`OCCCCNc1cncc(-c2cncc(Nc3cccc(Cl)c3)n2)c1` [Cmd 32] gave an IC50 [1] of 59 nM and an IC50 [2] of 60 nM.

For `CN(C)CCCNc1cncc(-c2cncc(Nc3cccc(Cl)c3)n2)c1` [Cmd 35], the IC50 [1] was 94 nM and the IC50 [2] was 90 nM.

For `Clc1cccc(Nc2cncc(-c3cncc(NCCCc4ccncc4)c3)n2)c1` [Cmd 71], the IC50 [1] was 52 nM and the IC50 [2] was 52 nM.

For `O=C(NCCCO)c1cncc(-c2cncc(Nc3cccc(Cl)c3)n2)c1` [Cmd 39], the IC50 [1] was 2500 nM and the IC50 [2] was 2500 nM.

`Clc1cccc(Nc2cncc(-c3cncc(NCCCN4CCCCC4)c3)n2)c1` [Cmd 73] was tested, and the IC50 [1] was 105 nM and the IC50 [2] was 105 nM.

Work on `CN(C)CCNc1cncc(-c2cncc(Nc3cccc(Cl)c3)n2)c1` [Cmd 33, N′-[5-[6-[(3-chlorophenyl)amino]pyrazinyl]-3-pyridinyl]-N^2,N^2-dimethyl-1,2-ethanediamine] yielded an IC50 [1] of 70 nM and an IC50 [2] of 70 nM.
